Columns and labels:
Human plasma kallikrein = target: T1, Human plasma kallikrein (Homo sapiens, UniProt P03952); assay: Inhibition of Human Plasma Kallikrein; assay type: biochemical; conditions: activity remaining 10 to 20 min after initiation
T1 construct: purchased Protogen AG (Switzerland)
Method: (§1) In the Examples which follow, the hydrolytic activity of each enzyme is measured in both the presence and absence of inhibitor and the percent enzyme activity determined. […] A steady state is reached fairly rapidly and nears completion within 5 min. Activity is evaluated between 10-20 min after the components are mixed to insure that reaction components are at equilibrium. The lowest concentration of inhibitor tested is determined by the estimated concentration of enzyme. […] The maintenance of pseudo-first-order reaction conditions and the sensitivity of the respective assays sets the lowest limit level of inhibitor tested at 10 nM for kallikrein inhibitors and 5 nM for thrombin inhibitors.
Human plasma kallikrein was obtained from Protogen AG (Switzerland). The specific activity as described by the supplier is 15 units per mg. A unit is defined as the quantity of enzyme required to hydrolyze 1 μmole of substrate, H-(D)Pro-Phe-Arg-p-nitroanilide (Kabi S2302), per min at a substrate concentration of 0.50 mM at 25° in 50 mM potassium phosphate buffer, pH 8.0.

Human thrombin = target: T2, Human thrombin (Homo sapiens, UniProt P00734); assay: Inhibition of Thrombin (Esterase Activity); assay type: biochemical; conditions: activity remaining 10 to 20 min after initiation
T2 construct: purchased R.Q.P. Laboratories, South Bend, IN Lot HT102
Method: as §1
A stock solution of thrombin was prepared in 0.010M PIPES Buffer, pH 6.0, containing 0.75 M sodium chloride. […] The initial concentration of substrate was 0.10 mM and the concentration of thrombin was 1.0 nM (based on weight).

normal human plasma [1] = assay: Activated partial thromboplastin times (APTT), blood coagulation in vitro; assay type: biochemical; conditions: for Calc. Concentration 2 × APTT: approximate concentration required to increase APTT two fold
Method: (§2) The effectiveness of inhibitors in reactions in which they compete with natural substrates for target enzymes is measured in vitro in blood coagulation assays. Two different assays are used, the APTT (activated partial thromboplastin times) and PT (prothrombin times) assays. These assays mimic the blood clotting process in vivo. Blood coagulation occurs through either of two pathways, each consisting of a cascades of zymogen activation steps. The pathways are termed the intrinsic and the extrinsic pathways (see L. Lorand, Methods in Enzymology 45: 31-37 (1976). The intrinsic pathway is initiated by negatively charged surfaces in which plasma kallikrein, factor XII and factor […] are activated and then factors IX and X and prothrombin are activated in calcium dependent steps. Thrombin, the last protease in the cascade, hydrolyses fibrinogen to fibrin which results in clot formation. In the APTT assay, plasma components are activated by exposure to negatively charged surfaces and then clotting times are measured after calcium is added to the system. In the extrinsic pathway, tissue thromboplastin activates factor VII which then activates factor X leading to the activation of thrombin. These events are measured in the prothrombin times assay.
The effect of protease inhibitors on blood coagulation in vitro was determined by measuring their effects on two different clinical parameters, the activated partial thromboplastin times (APTT) and prothrombin times (PT). Reagents for each of these assays were supplied by General Diagnostics, Jessup MD. Stock solutions of inhibitors were prepared in […] HEPES buffer, pH 7.5, containing 0.10 M sodium chloride. For the APTT assay, the inhibitor solution (0.100 mL) was incubated with normal human plasma (0.100 mL) and automated APTT reagent (0.100 mL). After incubation for 5.0 min at 37°, calcium chloride (0.100 mL) was added and the clotting times, measured in seconds, was determined on a fibrameter. The effects of the varying concentrations of inhibitor on blood clotting times compared with the clotting times of controls run in the absence of inhibitor, are shown in Table 3.

normal human plasma [2] = assay: Prothrombin times (PT), blood coagulation in vitro; assay type: biochemical; conditions: for Calc. Concentration 2 × XPT: approximate concentration required to increase PT two fold
Method: as §2
For PT assays, inhibitor solutions (0.100 mL) were incubated with normal human plasma (0.100 mL) for 2 min at 37°.

[3] = Stability of Inhibitors in Human Plasma As Measured By APTT; assay type: in vitro ADME; conditions: for Clotting Time: 250 nM in APTT assay
Method: The stability of inhibitors in plasma was determined by their ability to inhibit blood coagulation. First, a stock solutions (1.0 μM) of the inhibitors to be tested in 25 mM HEPES buffer, pH 7.5, containing 0.10 M sodium chloride were diluted 50% with normal human plasma. The mixtures were made at 0°, then aliquots (0.200 mL) were removed and incubated for 2 min at 37°. An equal volume of automated APTT reagent was added and clotting times were measured as described in Examples 111-117. The final concentration of inhibitor during the clotting assays was 250 nM. Values for compounds E and F were determined simultaneously with the Control. Values for compounds A, B and C were obtained on a different day.

[4] = Stability of Inhibitors in Buffer (thrombin assay); conditions: for Percent Thrombin activity: 1.0 μM; for stability in phosphate buffer at pH 7.5 (inhibitory activity): phosphate buffer pH 7.5
Method: Samples of the inhibitors are removed at increasing time intervals and their ability to delay clotting is measured at each interval.
Inhibitors, each at a concentration of 1.0 μM, were incubated at room temperature in 0.20 M sodium phosphate buffer, pH 7.5, containing 0.20 M sodium chloride and 0.10% PEG.

Sprague Dawley CD Rats = assay: In Vivo Inhibition of Croton Oil Induced Inflammation (ear swelling); conditions: for Mean Swelling (mg ± SE): right minus left ear weight
Method: Two solutions were prepared, the first consisting of 5% croton oil, a known inflammatory agent, in an acetone carrier (Croton Solution) and the second consisting of 5% croton oil in an acetone carrier to which 10 mg/mL of a compound of the invention was added (Compound Solution). The Croton Solution (10 μL), or alternatively the Compound Solution (10 μL), was applied to the right ear of each animal (Sprague Dawley CD Rats, 130-140 g, supplied by Charles River Labs, Inc., Wilmington, MA). […] "SE" denotes standard error.

[5] = incubation in human plasma 0.5 h
[6] = incubation in human plasma 24 h
[7] = Table 14, dose=100 μg, essentially the same conditions
[8] = incubation in human plasma 48 h
[9] = 100 μg/ear with 5% croton oil, topical, 1 h
[10] = Table 13, 100 μg/ear with 5% croton oil, topical, 1 h

T1 sequence (P03952 391-638 limits assumed): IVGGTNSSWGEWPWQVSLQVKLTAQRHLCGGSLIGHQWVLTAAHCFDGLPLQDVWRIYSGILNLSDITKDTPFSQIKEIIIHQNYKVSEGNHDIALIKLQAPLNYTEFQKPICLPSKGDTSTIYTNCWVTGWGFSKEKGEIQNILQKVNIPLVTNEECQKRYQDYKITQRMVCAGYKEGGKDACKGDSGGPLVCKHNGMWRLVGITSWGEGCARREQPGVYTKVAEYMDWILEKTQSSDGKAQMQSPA
T1 sequence (P03952 20-390 partner limits assumed): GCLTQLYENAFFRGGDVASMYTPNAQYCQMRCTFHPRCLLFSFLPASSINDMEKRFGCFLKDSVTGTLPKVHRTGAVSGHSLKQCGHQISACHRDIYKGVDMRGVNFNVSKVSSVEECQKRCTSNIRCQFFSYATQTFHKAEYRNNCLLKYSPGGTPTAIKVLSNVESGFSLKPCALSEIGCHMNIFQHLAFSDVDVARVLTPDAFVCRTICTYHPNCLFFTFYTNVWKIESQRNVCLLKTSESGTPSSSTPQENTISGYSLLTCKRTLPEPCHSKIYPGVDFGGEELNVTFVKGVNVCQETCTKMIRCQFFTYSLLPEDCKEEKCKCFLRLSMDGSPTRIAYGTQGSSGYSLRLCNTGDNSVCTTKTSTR

Row | SMILES | Percent Activity (Human plasma kallikrein; inhibitor 10 nM) [%] | Calc. Concentration 2 × APTT (normal human plasma [1]) [nM] | Activated Partial Thromboplastin Times (normal human plasma [1]; inhibitor 125 nM) [s] | Activated Partial Thromboplastin Times (normal human plasma [1]; inhibitor 200 nM) [s] | Activated Partial Thromboplastin Times (normal human plasma [1]; inhibitor 350 nM) [s] | Calc. Concentration 2 × XPT (normal human plasma [2]) [nM] | Prothrombin Times (normal human plasma [2]; inhibitor 500 nM) [s] | Prothrombin Times (normal human plasma [2]; inhibitor 750 nM) [s] | Prothrombin Times (normal human plasma [2]; inhibitor 1000 nM) [s] | Clotting Time ([3]; incubation in human plasma 0 h) [s] | Clotting Time [3, 5] [s] | Clotting Time ([3]; incubation in human plasma 1 h) [s] | Clotting Time ([3]; incubation in human plasma 2 h) [s] | Clotting Time ([3]; incubation in human plasma 4 h) [s] | Clotting Time [3, 6] [s] | Activated Partial Thromboplastin Times (normal human plasma [1]; inhibitor 50 nM) [s] | Activated Partial Thromboplastin Times (normal human plasma [1]; inhibitor 275 nM) [s] | Activated Partial Thromboplastin Times (normal human plasma [1]; inhibitor 550 nM) [s] | Prothrombin Times (normal human plasma [2]; inhibitor 2000 nM) [s] | Prothrombin Times (normal human plasma [2]; inhibitor 4000 nM) [s] | also measured
1 | CC1(C)C2CC3OB(C(CCCN=C(N)N)NC(=O)C4CCCN4C(=O)C(N)Cc4ccccc4)OC3(C)C1C2.Cl.Cl (stereo not drawn) [B, H-(D)Phe-Pro-boroArg-C10 H16.2HCl] | 61 | 170 | 44.2 | 71.5 | 249.7 | 460 | 33.8 | 85.3 | > 250 | 152.2 | 157.7 | 163.7 | 152.8 | 157.7 | 109.3 | – | – | – | – | – | Percent Activity (Human thrombin; inhibitor 5 nM): 7%; Activated Partial Thromboplastin Times (normal human plasma [1]; inhibitor 62.5 nM): 36.5 s; Activated Partial Thromboplastin Times (normal human plasma [1]; inhibitor 250 nM): 158.7 s; Activated Partial Thromboplastin Times (normal human plasma [1]; inhibitor 300 nM): 169.7 s; Prothrombin Times (normal human plasma [2]; inhibitor 12.5 nM): 20.1 s; Prothrombin Times (normal human plasma [2]; inhibitor 250 nM): 22.5 s; Prothrombin Times (normal human plasma [2]; inhibitor 625 nM): 46.5 s; stability in human plasma (inhibitor activity by clotting time) ([3]; incubation with plasma): lost activity after 24 h; Percent Thrombin activity ([4]; 0 hr in 0.20 M sodium phosphate buffer pH 7.5, room temperature): 2.0%; Percent Thrombin activity ([4]; 0.5 hr in 0.20 M sodium phosphate buffer pH 7.5, room temperature): 15%; Percent Thrombin activity ([4]; 1 hr in 0.20 M sodium phosphate buffer pH 7.5, room temperature): 100%; stability in phosphate buffer at pH 7.5 (inhibitory activity) [4]: loses its biological activity over a period of an hour; stability in phosphate buffer at pH 7.5 (inhibitory activity) ([4]; listed as H-(D)Phe-Pro-boroArg-C10 H16): lost inhibitory activity within one hour
2 | Br.CC(C)(C)OC(=O)NC(Cc1ccccc1)C(=O)NC(Cc1ccccc1)C(=O)NC(CCCSC(=N)N)B1OC2CC3CC(C3(C)C)C2(C)O1 (stereo not drawn) [Compound D, Boc-(D)Phe-Phe-boroIrg-C10 H16.HBr] | 2 | 370 | 45.2 | 46.2 | 75.7 | 1200 | 15.7 | 17.2 | 19.9 | – | – | – | – | – | – | 35.8 | 60.7 | 94.8 | 23.4 | 49.2 | Percent Activity (Human thrombin; inhibitor 5 nM): 48%; Percent Inhibition (Sprague Dawley CD Rats; [7]): 93%
3 | CC(=O)NC(Cc1ccccc1)C(=O)NC(CCCNC(=N)N)B1OC2CC3CC(C3(C)C)C2(C)O1.Cl (stereo not drawn) [Compound F, Ac-Phe-boroArg-C10 H16.HCl] | 48 | 325 | 35.2 | 36.7 | 58.2 | 2500 | – | – | 16.2 | 76.3 | 76.4 | 76.7 | 79.6 | 81.8 | 73.9 | 35 | 44.8 | 144.2 | 20.8 | 51.5 | Percent Activity (Human thrombin; inhibitor 1000 nM): 53%; Clotting Time ([3]; incubation in human plasma 3 h): 77.8 s; Clotting Time ([3]; incubation in human plasma 5 h): 80.8 s; Clotting Time ([3]; incubation in human plasma 6 h): 79.3 s; Clotting Time [3, 8]: 49.3 s; Mean Right ear Wt. (Sprague Dawley CD Rats; [9]): 18.9 mg; Mean Swelling (mg ± SE) (Sprague Dawley CD Rats; [9]): 2.3 ± 0.7 mg; Percent Inhibition (Sprague Dawley CD Rats; [10]): 79%
4 | CC(C)(C)OC(=O)N[C@H](Cc1ccccc1)C(=O)N[C@@H](Cc1ccccc1)C(=O)N[C@@H](CCCNC(=N)N)B1OC2CC3CC(C3(C)C)C2(C)O1.O=S(=O)(O)c1ccccc1 (stereo partly drawn) [E, Boc-(D)Phe-Phe-boroArg-C10 H16.benzene sulfonic acid] | 5.2 | 375 | 40.5 | 43.6 | 54.8 | 2600 | 19.8 | 22 | 29.3 | 63.2 | 73.2 | 66.2 | 67.7 | 58.2 | 64.7 | 36.8 | 52.8 | 61.3 | 39 | 70.8 | Percent Activity (Human thrombin; inhibitor 10 nM): 32%; Clotting Time ([3]; incubation in human plasma 3 h): 61.7 s; Clotting Time ([3]; incubation in human plasma 5 h): 61.3 s; Clotting Time ([3]; incubation in human plasma 6 h): 57.3 s; Clotting Time [3, 8]: 58.7 s; Percent Inhibition (Sprague Dawley CD Rats; [7]): 82%
5 | Br.CC(=O)NC(Cc1ccccc1)C(=O)NC(CCCSC(=N)N)B1OC2CC3CC(C3(C)C)C2(C)O1 (stereo not drawn) [G, Ac-Phe-boroIrg-C10 H16.HBr] | – | 625 | 36.2 | 39.3 | 66.7 | 1200 | 13.7 | 14.9 | 19.7 | – | – | – | – | – | – | 35.2 | 58.2 | 98.4 | 43.6 | – | Percent Activity (Human plasma kallikrein; inhibitor 50 nM): 17%; Percent Activity (Human thrombin; inhibitor 1000 nM): 64%; Percent Inhibition (Sprague Dawley CD Rats; [7]): 69%
6 | COc1ccc2c(c1)c(CC(=O)O)c(C)n2C(=O)c1ccc(Cl)cc1 [Indomethacin, indomethacin, reference compound] | – | – | – | – | – | – | – | – | – | – | – | – | – | – | – | – | – | – | – | – | Mean Right ear Wt. (Sprague Dawley CD Rats; [9]): 20.6 mg; Mean Swelling (mg ± SE) (Sprague Dawley CD Rats; [9]): 5.0 ± 2.8 mg; Percent Inhibition (Sprague Dawley CD Rats; [10]): 55%

Source: patent US5187157A, “Peptide boronic acid inhibitors of trypsin-like proteases” (Du Pont Merck Pharmaceutical Company, priority 1988, dated 1993)
